Data as given in patent US11840686B2, “Modulation of prekallikrein (PKK) expression” (Ionis Pharmaceuticals, Inc., priority 2013, dated 2023).
Strand notation (5' to 3'): a small letter for the sugar, then the base; units joined by * are phosphorothioate-linked, units joined directly phosphodiester-linked; [ ] holds rarer units or linkages, { } end groups; capitals alone tell only the bases. e = 2'-O-(2-methoxyethyl) (MOE); k = constrained ethyl (cEt); [5mC] = 5-methylcytosine; d = 2'-deoxy (DNA)

System: human PKK mRNA
Assay: Antisense inhibition of human PKK mRNA in HepaRG cells, 1,000 nM, MOE/deoxy/cEt oligonucleotides (Example 3)
Assay type: cell-based
Conditions: HepaRG cells, electroporation with 1,000 nM antisense oligonucleotide, approx. 24 hours, PKK mRNA by RT-PCR (RTS3454), relative to untreated control cells; Table 25 experiment
Summary of the method: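 HepaRG cells at 20,000 per well electroporated with 1,000 nM 16-mer MOE/cEt/deoxy gapmers (phosphorothioate, 5-methylcytosine). After about 24 h, PKK mRNA measured by qRT-PCR with primer probe set RTS3454, normalized to RIBOGREEN total RNA. Reported as percent inhibition versus untreated cells.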

Substance	% inhibition [%]
548227 (eG*eT*kG*dG*d[5mC]*d[5mC]*d[5mC]*dT*d[5mC]*dT*dT*dA*dA*kG*kT*e[5mC]; antisense) [compound 548227]	0

Same assay, conditions: HepaRG cells, electroporation with 1,000 nM antisense oligonucleotide, approx. 24 hours, PKK mRNA by RT-PCR (RTS3454), relative to untreated control cells; Table 26 experiment

Substance	% inhibition [%]
548228 (eG*eT*kT*dG*dT*dG*dT*dG*dG*d[5mC]*d[5mC]*d[5mC]*dT*k[5mC]*kT*eT; antisense) [compound 548228]	37
548229 (e[5mC]*eA*kT*dT*dG*dT*dT*dG*dT*dG*dT*dG*dG*k[5mC]*k[5mC]*e[5mC]; antisense) [compound 548229]	31
548230 (eT*eA*k[5mC]*dT*d[5mC]*dA*dT*dT*dG*dT*dT*dG*dT*kG*kT*eG; antisense) [compound 548230]	10
548231 (eA*eA*kT*dA*d[5mC]*dT*d[5mC]*dA*dT*dT*dG*dT*dT*kG*kT*eG; antisense) [compound 548231]	11
548232 (eG*e[5mC]*k[5mC]*dA*dT*dA*d[5mC]*dA*dT*d[5mC]*dT*dG*dA*kG*kG*eA; antisense) [compound 548232]	3
548233 (eA*eT*kT*dG*dT*dA*dG*d[5mC]*d[5mC]*dA*dT*dA*d[5mC]*kA*kT*e[5mC]; antisense) [compound 548233]	38
548234 (eT*eT*kA*dT*dT*dG*dT*dA*dG*d[5mC]*d[5mC]*dA*dT*kA*k[5mC]*eA; antisense) [compound 548234]	17
548235 (eT*e[5mC]*kT*dA*dG*dA*dT*dG*dA*d[5mC]*d[5mC]*dT*dG*kA*kA*eG; antisense) [compound 548235]	0
548236 (eT*eA*k[5mC]*dA*dT*d[5mC]*dT*dA*dG*dA*dT*dG*dA*k[5mC]*k[5mC]*eT; antisense) [compound 548236]	37
548237 (eG*eT*kA*dT*dA*d[5mC]*dA*dT*d[5mC]*dT*dA*dG*dA*kT*kG*eA; antisense) [compound 548237]	22
548238 (eA*e[5mC]*kT*d[5mC]*dG*d[5mC]*d[5mC]*dT*dT*dT*dG*dT*dG*kA*k[5mC]*eT; antisense) [compound 548238]	31
548239 (eT*eA*k[5mC]*dT*d[5mC]*dG*d[5mC]*d[5mC]*dT*dT*dT*dG*dT*kG*kA*e[5mC]; antisense) [compound 548239]	18
548240 (eA*eT*kA*d[5mC]*dT*d[5mC]*dG*d[5mC]*d[5mC]*dT*dT*dT*dG*kT*kG*eA; antisense) [compound 548240]	3
548241 (e[5mC]*eA*kT*dA*d[5mC]*dT*d[5mC]*dG*d[5mC]*d[5mC]*dT*dT*dT*kG*kT*eG; antisense) [compound 548241]	1
548242 (eG*e[5mC]*kA*dT*dA*d[5mC]*dT*d[5mC]*dG*d[5mC]*d[5mC]*dT*dT*kT*kG*eT; antisense) [compound 548242]	25
548243 (eA*eT*kG*d[5mC]*dA*dT*dA*d[5mC]*dT*d[5mC]*dG*d[5mC]*d[5mC]*kT*kT*eT; antisense) [compound 548243]	0
548244 (e[5mC]*eA*kT*dG*d[5mC]*dA*dT*dA*d[5mC]*dT*d[5mC]*dG*d[5mC]*k[5mC]*kT*eT; antisense) [compound 548244]	51
548245 (e[5mC]*e[5mC]*kA*dT*dG*d[5mC]*dA*dT*dA*d[5mC]*dT*d[5mC]*dG*k[5mC]*k[5mC]*eT; antisense) [compound 548245]	31
548246 (eT*eT*k[5mC]*d[5mC]*dA*dT*dG*d[5mC]*dA*dT*dA*d[5mC]*dT*k[5mC]*kG*e[5mC]; antisense) [compound 548246]	46
548248 (antisense eT*eG*k[5mC]*dG*dA*dT*dT*dT*dT*d[5mC]*d[5mC]*dA*dT*kG*k[5mC]*eA) [compound 548248]	13
548249 (antisense eT*eG*kT*dG*dA*dT*dG*d[5mC]*dG*dA*dT*dT*dT*kT*k[5mC]*e[5mC]) [compound 548249]	22
548250 (antisense e[5mC]*eT*kT*dT*dG*dT*dG*dA*dT*dG*d[5mC]*dG*dA*kT*kT*eT) [compound 548250]	0
548251 (antisense eG*e[5mC]*k[5mC]*dT*dT*dT*dG*dT*dG*dA*dT*dG*d[5mC]*kG*kA*eT) [compound 548251]	13
548252 (antisense eA*e[5mC]*kT*d[5mC]*dG*d[5mC]*d[5mC]*dT*dT*dT*dG*dT*dG*kA*kT*eG) [compound 548252]	33
548253 (antisense eT*eA*k[5mC]*dT*d[5mC]*dG*d[5mC]*d[5mC]*dT*dT*dT*dG*dT*kG*kA*eT) [compound 548253]	8
548254 (antisense e[5mC]*e[5mC]*k[5mC]*dA*dT*dG*d[5mC]*dA*dT*dA*d[5mC]*dT*d[5mC]*kG*k[5mC]*e[5mC]) [compound 548254]	39

Substance	% inhibition [%]
548255 (antisense e[5mC]*e[5mC]*k[5mC]*d[5mC]*dA*dT*dG*d[5mC]*dA*dT*dA*d[5mC]*dT*k[5mC]*kG*e[5mC]) [compound 548255]	38
548256 (antisense eG*e[5mC]*kT*d[5mC]*d[5mC]*d[5mC]*d[5mC]*dA*dT*dG*d[5mC]*dA*dT*kA*k[5mC]*eT) [compound 548256]	25
548257 (antisense eA*eG*kT*dG*d[5mC]*dT*d[5mC]*d[5mC]*d[5mC]*d[5mC]*dA*dT*dG*k[5mC]*kA*eT) [compound 548257]	2
548258 (antisense e[5mC]*eA*kA*dG*dT*dG*d[5mC]*dT*d[5mC]*d[5mC]*d[5mC]*d[5mC]*dA*kT*kG*e[5mC]) [compound 548258]	0
548259 (antisense eG*eT*kG*dA*dT*dG*dA*dA*dA*dG*dT*dA*d[5mC]*kA*kG*e[5mC]) [compound 548259]	45
548260 (antisense eA*eG*kG*dA*dG*dT*dT*dT*dG*dT*d[5mC]*dA*dG*kA*kA*e[5mC]) [compound 548260]	28
548261 (antisense eT*eT*k[5mC]*dA*dG*dG*dG*dA*dG*dT*dG*dA*dT*kG*kT*e[5mC]) [compound 548261]	36
548262 (antisense e[5mC]*e[5mC]*kT*dA*dT*d[5mC]*d[5mC]*dG*dT*dG*dT*dT*d[5mC]*kA*kG*e[5mC]) [compound 548262]	73
548263 (antisense e[5mC]*eT*k[5mC]*dT*dA*d[5mC]*dA*dT*dA*d[5mC]*dT*d[5mC]*dA*kG*kG*eA) [compound 548263]	62
548264 (antisense e[5mC]*eA*kG*dT*d[5mC]*d[5mC]*dA*dA*dA*dA*dA*dT*d[5mC]*k[5mC]*k[5mC]*eT) [compound 548264]	60
548266 (antisense eT*eT*kG*dG*d[5mC]*d[5mC]*dA*dA*d[5mC]*dT*d[5mC]*dT*dG*kT*kG*eG) [compound 548266]	44
548267 (antisense eG*eA*k[5mC]*d[5mC]*dT*d[5mC]*d[5mC]*dA*dG*dA*d[5mC]*dT*dA*k[5mC]*kT*eG) [compound 548267]	34
548268 (antisense eT*eG*kT*dG*dT*d[5mC]*dT*dA*dG*dG*dG*dA*dG*kT*kT*eG) [compound 548268]	52
548269 (antisense eA*eG*k[5mC]*dA*d[5mC]*dA*d[5mC]*dA*dA*dT*dT*dA*d[5mC]*kT*kG*eG) [compound 548269]	62
548270 (antisense e[5mC]*eT*kG*d[5mC]*dT*dG*dG*dT*dT*dT*dT*dA*dG*kA*k[5mC]*e[5mC]) [compound 548270]	28
548271 (antisense eT*eT*k[5mC]*dA*d[5mC]*dT*dT*dA*d[5mC]*d[5mC]*dA*d[5mC]*dA*kG*kG*eA) [compound 548271]	56
548272 (antisense eG*eG*kT*dG*d[5mC]*d[5mC]*dA*d[5mC]*dT*dT*dG*d[5mC]*dT*kT*kG*eG) [compound 548272]	54
548273 (antisense eA*eA*kT*d[5mC]*dT*d[5mC]*d[5mC]*dA*d[5mC]*d[5mC]*d[5mC]*d[5mC]*d[5mC]*kG*kA*eA) [compound 548273]	5
548274 (antisense eT*eA*k[5mC]*d[5mC]*dT*dG*dA*d[5mC]*dA*dA*dG*dT*dG*kG*kT*e[5mC]) [compound 548274]	0
548275 (antisense eG*eT*k[5mC]*d[5mC]*d[5mC]*dA*dA*dG*dA*d[5mC]*dA*dT*dT*k[5mC]*k[5mC]*eT) [compound 548275]	40
548276 (antisense e[5mC]*eA*kG*dA*dG*dT*dG*dT*d[5mC]*dA*dT*d[5mC]*dT*kG*k[5mC]*eG) [compound 548276]	49
548277 (antisense eG*eG*kA*dT*dT*dG*dG*dA*d[5mC]*d[5mC]*d[5mC]*dA*dG*kA*k[5mC]*eA) [compound 548277]	57
548279 (antisense e[5mC]*eA*k[5mC]*d[5mC]*dT*dA*dG*dA*dA*d[5mC]*dT*dA*dT*k[5mC]*k[5mC]*eA) [compound 548279]	39
548280 (antisense e[5mC]*eT*k[5mC]*d[5mC]*d[5mC]*dT*d[5mC]*dT*dG*dT*dA*dA*dT*kG*kA*eT) [compound 548280]	43
548281 (antisense eG*eG*kT*dT*dG*dA*dG*dG*dG*dA*d[5mC]*dA*dG*kA*k[5mC]*eA) [compound 548281]	0
548282 (antisense eG*eT*kG*dG*dG*dT*dT*dT*dG*d[5mC]*dA*d[5mC]*dA*kT*kG*eG) [compound 548282]	73
